Assay: Stability of CLF-spiked serum pools stored 48 hrs at −20° C., 4° C. and 37° C., CLF ELISA
Format: in vitro ADME, human
Conditions: for % difference (4° C. from −20° C.) / % difference (37° C. from −20° C.) / observed 4° C. / observed 37° C. / observed −20° C.: serum pool; for observed 4° C.: 48 hrs at 4° C.; for observed 37° C.: 48 hrs at 37° C.; for observed −20° C.: 48 hrs at −20° C.
Method: These conditions were used for all assays described in Phase 2a (above) and Phase 2b (below). See Appendix B and C for buffer and conjugate formulations respectively: • Add 25 μl/well of sample or standard (0-1000 ng/ml CLF in Buffer #24) to the wells of a streptavidin-coated microtitre plate (NovAssay, F2SAC). • Add 100 μl/well of fluorescein-biotin (Sigma B9431) at 20 ng/ml in Buffer #24+0.2% w/v ANS (Sigma 10417). • Add 100 μl/well of anti-fluorescein HRP (NovAssay, DV047/17-3) at 100 ng/ml in Buffer #24. • Incubate the plate for 30 minutes at room temperature. • Wash the plate 3 times with 800 μl/well Buffer #29 and tap the plate dry. • Add 100 μl/well of SureBlue Reserve TMB Substrate (KPL) and incubate the plate for 10 minutes at room temperature. • Stop the substrate reaction by adding 100 μl/well of 1M HCl and read the absorbance at 450 nm wavelength (ThermoFisher Scientific, Multiskan FC).
The stability study (−20° C., 4° C. and 37° C.) involved preparation of 3 serum pools spiked with 31.25 ng/ml, 125 ng/ml and 250 ng/ml CLF (aliquots of which were then stored at the 3 temperatures). Storage time was 48 hrs.

Q: For `CC(CCC(=O)NC(CCCCNC(=S)Nc1ccc(-c2c3ccc(=O)cc-3oc3cc(O)ccc23)c(C(=O)O)c1)C(=O)O)C1CCC2C3C(O)CC4CC(O)CCC4(C)C3CC(O)C12C` [CLF, Cholyl-L-Lysyl-Fluorescein], which “time spiked samples can be stored” value (at 4 C., should avoid higher temperatures e.g. 37 C.) is on record?
A: 48 hrs at 4 C. but should avoid higher

Q: And the “% difference (4° C. from −20° C.)” value (expected 31.25 ng/ml, 48 hrs)?
A: −8%

Q: What about the “% difference (37° C. from −20° C.)” value (expected 31.25 ng/ml, 48 hrs) of the same compound?
A: −45%

Q: And the “observed 4° C.” value (expected 31.25 ng/ml)?
A: 34 ng/mL

Q: What about the “observed 37° C.” value (expected 31.25 ng/ml) of the same compound?
A: 20 ng/mL

Q: What about the “observed −20° C.” value (expected 31.25 ng/ml) of the same compound?
A: 37 ng/mL

Q: And the “% difference (4° C. from −20° C.)” value (expected 125 ng/ml, 48 hrs)?
A: −2%

Q: What about the “% difference (37° C. from −20° C.)” value (expected 125 ng/ml, 48 hrs) of the same compound?
A: −20%

Q: And the “observed 4° C.” value (expected 125 ng/ml)?
A: 107 ng/mL

Q: What about the “observed 37° C.” value (expected 125 ng/ml) of the same compound?
A: 88 ng/mL

Q: What about the “observed −20° C.” value (expected 125 ng/ml) of the same compound?
A: 110 ng/mL

Q: What about the “% difference (4° C. from −20° C.)” value (expected 250 ng/ml, 48 hrs) of the same compound?
A: −12%

Q: And the “observed 4° C.” value (expected 250 ng/ml)?
A: 211 ng/mL

Q: What about the “observed 37° C.” value (expected 250 ng/ml) of the same compound?
A: >off scale

Q: And the “observed −20° C.” value (expected 250 ng/ml)?
A: 240 ng/mL

Q: And the “storage stability of spiked samples” value (serum pools spiked with CLF, 48 hrs, 4° C. vs 37° C. (reference −20° C.))?
A: can be stored for 48 hrs at 4 °C but should avoid higher temperatures
